Assay results: US20120258975A1, “Potent Small Molecule Inhibitors of Autophagy, and Methods of Use Thereof” (Shanghai Institute of Organic Chemistry, priority 2009, published 2012)

What was measured:
[1] = system: LC3-GFP (H4-LC3-GFP cells); assay: Starvation induced autophagy in H4-LC3-GFP cells; assay type: cell-based; settings: Hanks buffer 1 h; MBCQ 5 μM, 3-MA 10 mM, wortmannin 0.1 μM
Source text: FIG. 2 depicts results relating to MBCQ inhibition of autophagy induced by starvation. Quantitative measurement of LC3-GFP spot number per cell (a), spot size per cell (b) and spot intensity per cell (c) using HCS and expressed as % of control.

bax/bak DKO MEF cells = assay: Etoposide induced cell death of bax/bak DKO cells; assay type: cell-based, mouse; settings: etoposide 8 μM; MBCQ 10 μM, spautin 10 μM, 3-MA 10 mM; 8 h
Protocol: C, cells were collected for western blotting using anti-LC3 antibody. α-tubulin was used as a control. D-F, Bax/bak DKO cells were treated with spautin (10 μM) or indicated concentration, in the presence of or absent etoposide (8 μM) for 8 h or indicated time. […] F, Cells were collected for western blotting using anti-LC3 antibody. α-tubulin was used as a control.
Autophagy has been proposed to contribute to cell death in a number of apoptotic deficient cell types. For example, bax/bak double deficient mouse embryonic fibroblast cells (DKO mefs) are highly resistant to apoptosis (Wei, M. C., Zong, W. X., Cheng, E. H., Lindsten, T., Panoutsakopoulou, V., Ross, A. J., Roth, K. A., MacGregor, G. R., Thompson, C. B., and Korsmeyer, S. J. (2001). Proapoptotic BAX and BAK: a requisite gateway to mitochondrial dysfunction and death. Science 292, 727-730).

Vps34 complexes = assay: Levels of endogenous Beclin1, Vps34, Atg14L in H4 and 293T cells (western blot); settings: H4 cells and 293T cells; 10 μM; 3-MA 10 mM
Protocol: Twenty-four hours after the transfection, the cells were treated with indicated compounds for 12 h. The cell lysates were analyzed by western blotting using anti-HA, anti-flag or anti-tubulin. […] The cell lysates were harvested and analyzed by western blotting using: anti-Beclin1, anti-Atg14, anti-Vps34 and anti-UVRAG. Anti-α-tubulin was used as loading controls. […] The cell lysates were harvested and analyzed by western blotting using: anti-Beclin1 and anti-LC3. Anti-α-tubulin was used as loading controls.

LC3-GFP (H4-LC3 cells) = assay: LC3-GFP image-based autophagy assay in H4-LC3 cells; assay type: cell-based; settings: with rapamycin; MY-5445 30 μM, dipyridamole 80 μM, IBMX 100 μM, sildenafil 10 μM
Protocol: FIG. 1 relates to identification of a small molecule inhibitor of autophagy by an image-based screen. A, structure of MBCQ. B, Quantitative analysis of LC3-GFP spot number per cell (a), spot size per cell (b), spot intensity per cell (c). The data are expressed as % of control vehicle treated cells. H4-LC3 cells were seeded in 96 well-plates and incubated with vehicle control (1% DMSO), 0.2 μM rapamycin with or without 10 μM MBCQ for indicated time, fixed with 4% paraformaldehyde and stained with 4,6-diamidino-2-phenylindole (DAPI, 3 μg/ml). Images of 1000 cells for each compound treatment were analyzed by ArrayScan HCS 4.0 Reader with a 20× objective (Cellomics, Pittsburgh, Pa.).
(§1) FIG. 14 depicts MBCQ derivatives that can inhibit autophagy. To calculate EC50, H4-LC3 cells were seeded in 96 well-plates and cultured in the presence of compounds in different concentration for 24 h, and then fixed with polyformate and stained with 4,6-diamidino-2-phenylindole (DAPI, 3 μg/ml). Images data were collected with an ArrayScan HCS 4.0 Reader with a 20× objective (Cellomics, Pittsburgh, Pa.) for DAPI labeled nuclei and GFP-LC3, a marker for autophagy. The Spot Detector Bio-Application was used to acquire and analyze the images after optimization. Images of 1000 cells for each compound treatment were analyzed to obtain average cell number per field, fluorescence spot number, area and intensity per cell. DMSO and rapamycin were used as negative or positive control, respectively. The percentages of changes of LC3-GFP were calculated by dividing with that of DMSO treated samples. Each treatment was done in triplicate for mean and SD. The images were also analyzed using a conventional fluorescence microscope for visual inspection. The experiments were repeated three times
as §1, with “15” for “14”, “with reduced or no ability to” for “that can”, “times.” for “times”
To explore the mechanism of autophagy and identify additional small molecules that can activate it, a high-throughput image-based screen for autophagy regulators was developed. This system takes advantage of the localization of light chain 3 coupled to GFP (LC3-GFP) to autophagosomal membrane upon induction of autophagy (Zhang, L., Yu, J., Pan, H., Hu, P., Hao, Y., Cai, W., Zhu, H., Yu, A. D., Xie, X., Ma, D., et al. (2007). Small molecule regulators of autophagy identified by an image-based high-throughput screen. Proc Natl Acad Sci USA 104, 19023-19028). […] Compounds that increase cellular levels of LC3-GFP, however, are not necessarily able to increase degradative activity of autophagy. Instead, the increases of LC3-GFP may be associated with cell death or may be a result of lysosomal defect and thus associated with blockage of autophagy. […]

PDE5 = PDE5 (Homo sapiens, UniProt O76074); assay: Determination of % inhibition of PDE5 activity; assay type: biochemical; settings: for inhibition at 0.2 µM: Concentration = 0.2 μM; for inhibition at 2 µM: Concentration = 2 μM; for inhibition at 20 µM: Concentration = 20 μM

| Compound | activity on autophagy (LC3-GFP (H4-LC3 cells)) | inhibition at 0.2 µM (PDE5) [%] | inhibition at 2 µM (PDE5) [%] | inhibition at 20 µM (PDE5) [%] | other results |
| --- | --- | --- | --- | --- | --- |
| Cn1cnc(N)c2ncnc1-2 [3-MA, 3-methyladenine] | – | – | – | – | starvation induced autophagy (LC3-GFP spot number, size, intensity) [1]: inhibited; cell death induced by etoposide (bax/bak DKO MEF cells): inhibits etoposide induced death; levels of endogenous Beclin1, Vps34 and Atg14L (Vps34 complexes): no effect on endogenous Beclin1 |
| CC(C)Cn1c(=O)n(C)c(=O)c2[nH]cnc21 [IBMX] | None of the PDE5 inhibitors tested | – | – | – | – |
| Clc1cccc(Nc2nnc(-c3ccccc3)c3ccccc23)c1 [MY-5445] | None of the PDE5 inhibitors tested | – | – | – | – |
| CCCc1nn(C)c2c(=O)[nH]c(-c3cc(S(=O)(=O)N4CCN(C)CC4)ccc3OCC)nc12 [Sildenafil] | None of the PDE5 inhibitors tested | 96.5 | 98.8 | 102 | – |
| CCCOc1ccccc1-c1nc2nn[nH]c2c(=O)[nH]1 [Zaprinast] | – | 38 | 88.4 | 102 | – |
| OCCN(CCO)c1nc(N2CCCCC2)c2nc(N(CCO)CCO)nc(N3CCCCC3)c2n1 [dipyridamole] | None of the PDE5 inhibitors tested | – | – | – | – |
